In one assay the test system is Streptococcus pneumoniae. Nature of the assay: Antibacterial activity against Streptococcus pneumoniae assessed as reduction in bacterial cell growth inhibition by broth microdilution method. It is filed as functional, organism-based.
The subject of the next assay is Enterococcus faecalis. The experiment in a line: Antibacterial activity against Enterococcus faecalis ATCC 10541 assessed as reduction in bacterial growth incubated for 24 hrs by broth microdilution method. The settings on record: ATCC 10541, 24 h. It is filed as functional, organism-based.
In assay [1] the test system is Clostridium perfringens. Nature of the assay: Antibacterial activity against Clostridium perfringens assessed as inhibition of bacterial growth incubated for 18 hrs by CLSI protocol based microbroth dilution method. The assay is classed as functional.
The subject of assay [2] is Pseudomonas aeruginosa. The experiment in a line: Antibacterial activity against Pseudomonas aeruginosa ATCC 27853 assessed as bacterial growth inhibition measured after 18 hrs by CLSI protocol based two-fold serial microdilution method. It is filed as functional.
Assay [3] concerns Pseudomonas fluorescens. The experiment in a line: Antibacterial activity against Pseudomonas fluorescens assessed as zone of inhibition. The assay is classed as functional.
Assay [4] has as its system Staphylococcus aureus. Nature of the assay: Antibacterial activity against Staphylococcus aureus ATCC 29213 assessed as bacterial growth inhibition measured after 18 hrs by CLSI protocol based two-fold serial microdilution method. It is filed as functional.
The test system of assay [5] is Pseudomonas fluorescens. Nature of the assay: Antibacterial activity against Pseudomonas fluorescens assessed as reduction in bacterial growth. The assay is classed as functional.
Assay [6] concerns Pseudomonas aeruginosa. The experiment in a line: Antibacterial activity against Pseudomonas aeruginosa ATCC 15442 assessed as bacterial growth inhibition measured after 18 hrs by CLSI protocol based two-fold serial microdilution method. It is filed as functional.
Assay [7] deals with Staphylococcus epidermidis. Nature of the assay: Antibacterial activity against Staphylococcus epidermidis ATCC 12228 assessed as reduction in bacterial growth incubated for 18 hrs by two fold serial microdilution method. It is filed as functional.
Assay [8] has as its system Bacillus subtilis. The experiment in a line: Antibacterial activity against Bacillus subtilis assessed as reduction in bacterial growth incubated for 20 hrs by broth microdilution assay. The assay is classed as functional.
The subject of assay [9] is Escherichia coli. Nature of the assay: Antibacterial activity against Escherichia coli ATCC 25922 assessed as reduction in bacterial growth incubated for 18 to 20 hrs by broth microdilution assay. The assay is classed as functional. The settings on record: time 18-20 hrs.
For another assay, the system named is Mus musculus. The experiment in a line: Antinociceptive activity in Swiss mouse assessed as reduction in pain like behavior at 0.003 mg/kg, ip and measured after 1.5 hrs by cold plate test. It is filed as functional. Also noted: scale not given: the % may be the effect or the level left.
For assay [10], the system named is Candida albicans. The experiment in a line: Fungicidal activity against Candida albicans assessed as reduction in fungal growth measured after 48 hrs by CLSI protocol based microdilution method. The assay is classed as functional.
The test system of assay [11] is Escherichia coli. The experiment in a line: Antibacterial activity against Escherichia coli assessed as reduction in bacterial growth incubated for 24 hrs by Mueller-Hinton agar based analysis. The assay is classed as functional.
For assay [12], the system named is Staphylococcus aureus. Nature of the assay: Antimicrobial activity against Staphylococcus aureus […] assessed as reduction in bacterial growth incubated for 24 hrs by Mueller-Hinton agar based analysis. The assay is classed as functional.
The test system of assay [13] is Escherichia coli. The experiment in a line: Antibacterial activity against Escherichia coli assessed as reduction in bacterial growth by broth microdilution method. It is filed as functional.
Assay [14] concerns Clostridium perfringens. The experiment in a line: Antibacterial activity against Clostridium perfringens assessed as reduction in bacterial growth inhibition. The assay is classed as functional.
Assay [15] concerns Bacillus subtilis. Nature of the assay: Antibacterial activity against Bacillus subtilis assessed as zone of inhibition. It is filed as functional.
Another assay has as its system Salmonella typhimurium. Nature of the assay: Antibacterial activity against Salmonella typhimurium DT104 assessed as reduction in bacterial growth inhibition. The assay is classed as functional, Salmonella enterica subsp. enterica serovar Typhimurium.
The next assay deals with Proteus vulgaris. The experiment in a line: Antimicrobial activity against Proteus vulgaris NCIM 2813 assessed as zone of inhibition incubated for 24 hrs by agar diffusion method. It is filed as functional.
The test system of assay [16] is Escherichia coli. Nature of the assay: Antibacterial activity against Escherichia coli assessed as reduction in bacterial growth inhibition. It is filed as functional.
A short description of assay [17]: Antioxidant activity assessed as DPPH radical scavenging activity incubated for 20 mins by spectrophotometric method. The assay is classed as functional.
The test system of a further assay is Salmonella enteritidis. Nature of the assay: Antibacterial activity against Salmonella enterica subsp. enterica serovar Enteritidis assessed as reduction in bacterial growth inhibition. It is filed as functional.
Assay [18] relates to Pseudomonas aeruginosa. Nature of the assay: Antibacterial activity against Pseudomonas aeruginosa ATCC 15442 assessed as reduction in bacterial growth incubated for 24 hrs by Mueller-Hinton agar based analysis. The assay is classed as functional.
The test system of assay [19] is Candida albicans. Nature of the assay: Antifungal activity against Candida albicans assessed as reduction in fungal growth incubated for 24 hrs by broth microdilution method. The assay is classed as functional.
Assay [20] concerns Staphylococcus epidermidis. Nature of the assay: Antimicrobial activity against Staphylococcus epidermidis ATCC 12228 assessed as reduction in bacterial growth incubated for 24 hrs by Mueller-Hinton agar based analysis. The assay is classed as functional.
The subject of another assay is HCT-15. The experiment in a line: Growth inhibition of human HCT-15 cells incubated for 48 hrs by SRB assay. It is filed as functional.
The test system of a further assay is MIA PaCa-2. The experiment in a line: Growth inhibition of human MIA PaCa-2 cells incubated for 48 hrs by SRB assay. The assay is classed as functional.
Assay [21] deals with Staphylococcus aureus. The experiment in a line: Synergistic antibacterial activity against Staphylococcus aureus ATCC 29213 assessed as fractional inhibitory concentration incubated for 24 hrs in the presence of ampicillin by checkerboard assay. It is filed as functional.
For assay [22], the system named is Pseudomonas aeruginosa. Nature of the assay: Bactericidal activity against Pseudomonas aeruginosa ATCC 27853 assessed as reduction in bacterial viability. It is filed as functional.
Assay [23] deals with Escherichia coli. Nature of the assay: Antibacterial activity against Escherichia coli ATCC 25922 assessed as zone of inhibition incubated for 24 hrs by agar diffusion method. The assay is classed as functional.
A short description of assay [24]: Antibacterial activity against Salmonella enterica subsp. enterica serovar Pullorum assessed as inhibition of bacterial growth incubated for 18 hrs by CLSI protocol based microbroth dilution method. The assay is classed as functional.

Molecules are shown by their SMILES. ≈ marks a conversion by molar mass, not a printed value.

With `Cc1ccc(C(C)C)cc1OCc1cn(-c2ccc(C(=O)O)cc2)nn1`, the IC50 with Streptococcus pneumoniae and with Enterococcus faecalis was 15 µg/mL (≈ 42.7 µM) in each case.
Turning to `C=CCOc1cc(C(C)C)ccc1C`, the MIC in the assay with Clostridium perfringens [1] and in the assay on Pseudomonas aeruginosa [2] was 110 µg/mL (≈ 578 µM) in each case.
`COc1cc(C(C)C)ccc1C`: the “inhibition zone (IZ)” value with Pseudomonas fluorescens [3] was found to be 15 mm. In addition, the MIC in the assay on Staphylococcus aureus [4] came to 250 µg/mL (≈ 1520 µM); in the assay on Pseudomonas fluorescens [5] it was 250 µg/mL (≈ 1520 µM); with Pseudomonas aeruginosa [6] it was 0.49 µM (≈ 0.0805 µg/mL); in assay [7] it was 0.06 µM (≈ 0.00985 µg/mL); in the assay on Bacillus subtilis [8], 250 µg/mL (≈ 1520 µM); with Escherichia coli [9], 250 µg/mL (≈ 1520 µM).
Consider `Cc1c(O)cc(C(C)C)cc1S(=O)(=O)N1CCOCC1`, for which the Activity with Mus musculus is recorded as 62%.
Regarding `Cc1ccc(C(C)C)cc1O` [CARVACROL], the MFC with Candida albicans [10] was 512 µg/mL (≈ 3410 µM). In addition, the MIC with Escherichia coli [11] was 0.6 µg/mL (≈ 3.99 µM); with Staphylococcus aureus [12], 0.6 µg/mL (≈ 3.99 µM); with Escherichia coli [13], 450 µg/mL (≈ 3000 µM); with Clostridium perfringens [14] it was below 0.09 %v/v; with Salmonella typhimurium, 0.37 %v/v; with Escherichia coli [16], below 0.09 %v/v. Besides, the MIC with Salmonella enteritidis is below 0.09 %v/v; with Pseudomonas aeruginosa [18], 5 µg/mL (≈ 33.3 µM); in the assay with Candida albicans [19], 256 µg/mL (≈ 1700 µM); in assay [20], 0.3 µg/mL (≈ 2 µM). The “inhibition zone (IZ)” value in the assay on Bacillus subtilis [15] turned out to be 13 mm; in the assay with Proteus vulgaris it was 7 mm. For the same compound, in assay [17], the IC50 came out at 267 µg/mL (≈ 1780 µM).
As for `COc1cccc2c1C(=O)c1c(O)c3c(c(O)c1C2=O)C[C@@](O)(C(=O)CO)C[C@@H]3O[C@H]1C[C@H](N)[C@H](O)[C@H](C)O1.Cl` [DOXORUBICIN HYDROCHLORIDE], the GI50 with HCT-15 and with MIA PaCa-2 was 80 µg/mL throughout.
Regarding `Cc1cc(S(=O)(=O)Nc2ccc(F)cc2)c(C(C)C)cc1O`, the FIC with Staphylococcus aureus [21] is given as 0.5.
With `Cc1cc(Cl)c(C(C)C)cc1O`, the minimal bactericidal concentration (MBC) with Pseudomonas aeruginosa [22] was determined as 6.87 µg/mL (≈ 37.2 µM). The MIC in the assay on Pseudomonas aeruginosa [2] came to 3.44 µg/mL (≈ 18.6 µM).
Turning to `Cc1ccc(C(C)C)cc1OCC(=O)NNS(=O)(=O)c1cccc(C(F)(F)F)c1`, the “inhibition zone (IZ)” value with Escherichia coli [23] is on record as 10 mm.
Turning to `Cc1ccc(C(C)C)cc1OC1CC[C@H](O)[C@@H](CO)O1` (some centres undefined), the MIC in assay [24] was 0.5 µg/mL (≈ 1.78 µM).
In the case of `Cc1ccc(C(C)C)cc1OCC(=O)NNS(=O)(=O)c1ccc(Cl)cc1`, in the assay with Escherichia coli [23], the “inhibition zone (IZ)” value is recorded as 10 mm.

For the origin of these results see ChEMBL document CHEMBL5576070, “The recent discovery of a promising pharmacological scaffold derived from carvacrol: A review” (Bioorg Med Chem Lett, 2024).
